Experimental data as given in ChEMBL document CHEMBL4020739, “Investigation of the structural requirements of K-Ras(G12D) selective inhibitory peptide KRpep-2d using alanine scans and cysteine bridging” (Bioorg Med Chem Lett, 2017).
Active and inactive are the calls of the source. No cut-off for these calls is given here.

Columns and labels:
A-427 [1] = experiment: Antiproliferative activity against human A427 cells harboring K-Ras G12D mutant assessed as cell proliferation at 10 uM by CellTitre-Glo assay relative to control; assay type: functional; settings: read-out: Activity
A549 = experiment: Antiproliferative activity against human A549 cells harboring K-Ras G12C mutant assessed as cell proliferation at 10 to 30 uM by CellTitre-Glo assay; assay type: functional, cell-based
A-427 [2] = experiment: Antiproliferative activity against human A427 cells harboring K-Ras G12D mutant assessed as cell proliferation at 30 uM by CellTitre-Glo assay relative to control; assay type: functional; settings: read-out: Activity

CC[C@H](C)[C@@H]1NC(=O)[C@H](Cc2ccc(O)cc2)NC(=O)[C@H](CC(C)C)NC(=O)[C@@H]2CCCN2C(=O)[C@@H](NC(=O)[C@H](CCCNC(=N)N)NC(=O)[C@H](CCCNC(=N)N)NC(=O)[C@H](CCCNC(=N)N)NC(=O)[C@H](CCCNC(=N)N)NC(C)=O)CSCSC[C@@H](C(=O)N[C@@H](CCCNC(=N)N)C(=O)N[C@@H](CCCNC(=N)N)C(=O)N[C@@H](CCCNC(=N)N)C(=O)N[C@@H](CCCNC(=N)N)C(N)=O)NC(=O)[C@H](C(C)C)NC(=O)[C@@H]2CCCN2C(=O)[C@H](CC(=O)O)NC(=O)[C@H](Cc2ccc(O)cc2)NC(=O)[C@H](CO)NC1=O
growth at 10 µM (A-427 [1]): 91% | Activity (A549): inactive | growth at 30 µM (A-427 [2]): 69.9%
